From paper PMC7697888, “Comprehensive Set of Tertiary Complex Structures and Palmitic Acid Binding Provide Molecular Insights into Ligand Design for RXR Isoforms” (International Journal of Molecular Sciences, 2020)
Read-outs that look alike come from different tables or passages of the source.

How the values were obtained:
RXRα LBD = target: T1, RXRα LBD (Homo sapiens, UniProt P19793); experiment: HTRF-based SRC-1 co-activator recruitment assay; format: biochemical; details: for EC50: HTRF; for competition with bexarotene in SRC-1 recruitment: titrated in the presence of 0.3 µM bexarotene
T1 construct: peptide to the RXRα LBD (aa 225–462) was studied
T1 sequence (P19793 225-462): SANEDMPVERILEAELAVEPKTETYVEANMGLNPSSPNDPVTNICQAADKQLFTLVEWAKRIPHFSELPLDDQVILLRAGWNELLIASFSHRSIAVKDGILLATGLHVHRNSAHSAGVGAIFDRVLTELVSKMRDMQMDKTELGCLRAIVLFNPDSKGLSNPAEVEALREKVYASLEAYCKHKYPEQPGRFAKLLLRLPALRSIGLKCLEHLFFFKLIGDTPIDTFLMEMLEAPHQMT
Excerpt: To examine whether PA can act as a modulator that activates RXRs in solution, we next performed homogenous time-resolved fluorescence resonance energy transfer (HTRF)-based co-regulator recruitment assays using a peptide derived from steroid receptor co-activator 1 (SRC-1) as established previously. In addition to PA, we also tested the RXR modulator potentials of myristic acid (MA; C14:0; C14H28O2; […]) and stearic acid (SA; C18:0; C18H36O2; […]).
Terbium cryptate as streptavidin conjugate (Cisbio Bioassays, Codolet, France) was used as the fluorescence resonance energy transfer (FRET) donor and stably coupled via an N-terminal biotin to the SRC-1-derived peptide (biotin-[…]) (Eurogentec Deutschland GmbH, Cologne, Germany), which contains the co-activator consensus motif, LxxLL. Recombinant RXRα LBD fused to N-terminal superfolder green fluorescent protein (sGFP) served as the FRET acceptor. Coactivator recruitment by the RXRα LBD brings FRET donor and acceptor into close proximity, resulting in a gain in the FRET signal as indicator for binding. […] Fluorescence intensities (FI) at 520 nm (acceptor) and 620 nm (donor reference) after excitation at 340 nm were recorded on a Tecan Spark luminometer equipped with enhanced fluorescence module (Tecan) after 2 h of incubation at room temperature. To obtain dimensionless HTRF, FI520 nm was divided by FI620 nm and multiplied with 10,000. The recruitment of the SRC-1-derived peptide to the RXRα LBD was validated with increasing concentrations of SR11237.

RXRβ = target: T2, RXRβ (Homo sapiens, UniProt P28702); experiment: Gal4 hybrid reporter gene assay RXRβ; format: cell-based; details: HEK293T; at 100 µM concentrations and above
T2 construct: pFA-CMV-hRXRβ-LBD (NR2B2, UniProt entry: P28702-1, aa 294–533); expressed in transfected cells; host or cells: HEK293T
T2 sequence (P28702 294-533): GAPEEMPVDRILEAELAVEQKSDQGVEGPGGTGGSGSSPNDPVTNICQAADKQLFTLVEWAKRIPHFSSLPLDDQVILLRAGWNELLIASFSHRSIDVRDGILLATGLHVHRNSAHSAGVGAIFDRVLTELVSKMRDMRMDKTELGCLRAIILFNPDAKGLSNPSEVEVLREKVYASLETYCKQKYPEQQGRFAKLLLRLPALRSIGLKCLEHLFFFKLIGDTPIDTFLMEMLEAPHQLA
Method: The Gal4 hybrid reporter gene assays for RXRα, RXRβ and RXRγ were performed as described previously using the Gal4-fusion receptor plasmids pFA-CMV-hRXRα-LBD (NR2B1, UniProt entry: P19793, aa 225–462), pFA-CMV-hRXRβ-LBD (NR2B2, UniProt entry: P28702-1, aa 294–533) and pFA-CMV-hRXRγ-LBD (NR2B3, UniProt entry: P48443-1, aa 229–463), which code for the hinge region and LBD of the canonical RXR isoform. pFR-Luc (Stratagene, San Diego, CA, USA) as the reporter plasmid and pRL-SV40 (Promega, Madison, WI, USA) as the internal control were used. HEK293T cells were grown in DMEM high-glucose medium (supplemented with 10% fetal calf serum (FCS), sodium pyruvate (1 mM), penicillin (100 U/mL) and streptomycin (100 μg/mL)) at 37 °C and 5% CO2, and seeded in 96-well plates (3.0 × 10^4 cells/well) on the day before transfection. Right before transfection, medium was changed to Opti-MEM without supplements and cells were transiently transfected using the Lipofectamine LTX reagent (Invitrogen, Carlsbad, CA, USA) according to the manufacturer’s protocol with pFR-Luc (Stratagene), pRL-SV40 (Promega) and the respective pFA-CMV-hRXR-LBD clone. After 5 h of incubation, medium was changed to Opti-MEM (supplemented with penicillin (100 U/mL) and streptomycin (100 μg/mL)) additionally containing 0.1% DMSO and the respective test compounds or 0.1% DMSO alone as the untreated control. After overnight incubation (12–14 h), cells were assayed for luciferase activity using the Dual-Glo luciferase assay system (Promega) according to the manufacturer’s protocol on a Tecan Spark M10 luminometer (Tecan Deutschland GmbH, Crailsheim, Germany). Each sample was tested in at least three biologically independent repeats in duplicates. Data were normalized for transfection efficiency and cell growth by division of firefly luciferase data by Renilla luciferase data and multiplying by 1000 to obtain relative light units (RLUs). Fold activation denotes the mean RLU of test compounds at a respective concentration divided by the mean RLU of untreated control. […]

[1] = cell-free, compound alone, read-out: EC50 SRC-1 recruitment to RXRα
[2] = in the presence of 0.3 µM bexarotene, read-out: EC50 SRC-1 recruitment to RXRα in the presence of 0.3 µM bexarotene

Row | Structure (SMILES) | EC50 (RXRα LBD; EC50 SRC-1 recruitment to RXRα in the presence of 0.3 µM bexarotene, in the presence of 0.3 µM bexarotene) | EC50 (RXRα LBD; [1]) | competition with bexarotene in SRC-1 recruitment (RXRα LBD) | RXRβ activation in Gal4 hybrid reporter gene assay (RXRβ) | EC50 (RXRα LBD; [2])
1 | CCCCCCCCCCCCCC(=O)O [MA, myristic acid] | 2.9 µM | 3.2 µM | no competition | activated | 
2 | CCCCCCCCCCCCCCCC(=O)O [PA, palmitic acid] |  | 6.6 µM | no competition | activated | 3.1 µM
3 | CCCCCCCCCCCCCCCCCC(=O)O [SA, stearic acid] |  | 19 µM | no competition | activated | 14 µM
